The values below come from ChEMBL document CHEMBL2073787, “Isolation of a family of organic anion transporters from human liver and kidney” (Biochem Biophys Res Commun, 2001).

SMILES strings stand for the structures.

Holding throughout (format): functional, cell-based
The target of data set [1] is T1, Solute carrier family 22 member 7 (Homo sapiens, UniProt Q9Y694).
T1 sequence (Q9Y694 whole entry): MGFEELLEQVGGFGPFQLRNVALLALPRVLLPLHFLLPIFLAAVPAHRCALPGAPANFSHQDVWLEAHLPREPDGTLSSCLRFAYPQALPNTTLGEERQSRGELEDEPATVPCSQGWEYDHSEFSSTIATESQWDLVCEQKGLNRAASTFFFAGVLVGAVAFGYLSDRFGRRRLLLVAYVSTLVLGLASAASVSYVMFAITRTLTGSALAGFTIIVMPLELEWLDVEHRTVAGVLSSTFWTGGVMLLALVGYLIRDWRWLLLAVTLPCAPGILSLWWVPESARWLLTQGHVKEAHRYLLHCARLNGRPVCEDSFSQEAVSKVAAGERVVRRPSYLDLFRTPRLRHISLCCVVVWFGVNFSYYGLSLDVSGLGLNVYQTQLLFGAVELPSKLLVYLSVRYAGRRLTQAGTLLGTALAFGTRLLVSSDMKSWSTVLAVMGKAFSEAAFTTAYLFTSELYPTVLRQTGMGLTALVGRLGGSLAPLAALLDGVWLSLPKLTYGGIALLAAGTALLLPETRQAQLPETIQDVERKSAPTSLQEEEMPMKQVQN
Nature of the data set: TP_TRANSPORTER: uptake in OAT2-expressing EcR293 cells.

For data set [2], the target named is T1, Solute carrier family 22 member 7. Nature of the data set: TP_TRANSPORTER: inhibition of PAH uptake (BSP: 100 uM) in OAT2-expressing EcR293 cells. The following applies: ecr293, 100 µM.
Data set [3] shares this target. Nature of the data set: TP_TRANSPORTER: inhibition of PAH uptake (alpha-KG: 500 uM) in OAT2-expressing EcR293 cells. Particulars: ecr293, 500 µM.

As to `Nc1ccc(C(=O)NCC(=O)O)cc1` [AMINOHIPPURIC ACID], the Activity entry in data set [1] is “substrate [+]”. Same read-out and setting: next, `CN(Cc1cnc2nc(N)nc(N)c2n1)c1ccc(C(=O)N[C@@H](CCC(=O)O)C(=O)O)cc1` [METHOTREXATE]: “substrate [+]”.

As for `O=C1OC(c2ccc(O)c(S(=O)(=O)[O-])c2)(c2ccc(O)c(S(=O)(=O)[O-])c2)c2c(Br)c(Br)c(Br)c(Br)c21.[Na+].[Na+]` [SULFOBROMOPHTHALEIN SODIUM], the Activity entry in data set [2] was “inhibitor [+]”. With `O=C(O)CCC(=O)C(=O)O` [ALPHA-KETOGLUTARIC ACID], the Activity result in data set [1] was “substrate [+]”; in data set [3], “is not an inhibitor [-]”.
